Test results published in ChEMBL document CHEMBL1201862, “PubChem BioAssay data set” (2004).
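Assay format: 96-well plates, 48-hour exposure. GI50: concentration for 50% inhibition of growth.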 Calls of active or inactive are those of the source. Rule as the data show it: active = GI50 up to about 1.1 µM and inactive = higher.

How the values were obtained:
Assay in all cases: NCI tumour cell line growth inhibition, 48 h
[1] = test system: LXFL 529
[2] = test system: CCRF-CEM
[3] = test system: SK-MEL-2
[4] = test system: SW-620
[5] = test system: NCI-H522
[6] = test system: M14
[7] = test system: DLD-1
[8] = test system: SK-MEL-28
[9] = test system: SNB-78
[10] = test system: SNB-75
[11] = test system: K562
[12] = test system: EKVX
[13] = test system: KM12
[14] = test system: HOP-62
[15] = test system: ACHN
[16] = test system: IGROV-1
[17] = test system: HCT-15
[18] = test system: SF-295
[19] = test system: A549
[20] = test system: OVCAR-8
[21] = test system: OVCAR-4
[22] = test system: LOX IMVI
[23] = test system: HCT-116
[24] = test system: DMS-114
[25] = test system: NCI-H23
[26] = test system: KM-20L2
[27] = test system: UACC-257
[28] = test system: HOP-92
[29] = test system: OVCAR-5
[30] = test system: RPMI-8226
[31] = test system: HL-60
[32] = test system: SNB-19
[33] = test system: NCI-H226
[34] = test system: OVCAR-3
[35] = test system: 786-0
[36] = test system: U-251
[37] = test system: UO-31
[38] = test system: SF-268
[39] = test system: NCI-H460
[40] = test system: MOLT-4
[41] = test system: CAKI-1
[42] = test system: Malme-3M
[43] = test system: UACC-62
[44] = test system: HT-29
[45] = test system: TK-10
[46] = test system: HOP-18
[47] = test system: SF-539
[48] = test system: RXF 393
[49] = test system: M19-MEL
[50] = test system: COLO 205
[51] = test system: SR
[52] = test system: HCC 2998
[53] = test system: RXF 631
[54] = test system: SK-MEL-5
[55] = test system: SN12C
[56] = test system: SK-OV-3
[57] = test system: DMS-273
[58] = test system: A498
[59] = test system: XF498

Measured: GI50

COC[n+]1cc2cc(OC)c(OC)cc2c2ccc3cc(OC)c(OC)cc3c21
> 100 µM: [17]
inactive: [1] > 100 µM | [2] 98.2 µM | [3] > 100 µM | [4] > 100 µM | [5] > 100 µM | [6] > 100 µM | [7] > 100 µM | [8] > 100 µM | [9] > 100 µM | [10] > 100 µM | [11] > 100 µM | [12] > 100 µM | [13] > 100 µM | [14] > 100 µM | [15] > 100 µM | [16] > 100 µM | [18] > 100 µM | [19] > 100 µM | [20] > 100 µM | [21] > 100 µM | [22] > 100 µM | [23] > 100 µM | [24] > 100 µM | [25] > 100 µM | [26] > 100 µM | [27] > 100 µM | [28] > 100 µM | [29] > 100 µM | [30] > 100 µM | [31] > 100 µM | [32] > 100 µM | [33] > 100 µM | [34] > 100 µM | [35] > 100 µM | [36] > 100 µM | [37] > 100 µM | [38] > 100 µM | [39] > 100 µM | [40] > 100 µM | [41] > 100 µM | [42] > 100 µM | [43] > 100 µM | [44] > 100 µM | [45] > 100 µM | [46] > 100 µM | [47] > 100 µM | [48] > 100 µM | [49] > 100 µM | [50] > 100 µM | [51] > 10 µM | [52] > 100 µM | [53] > 100 µM | [54] > 100 µM | [55] > 100 µM

O=C1C=Cc2noc3cccc1c23
inactive: [1] 1.94 µM | [3] 7.4 µM | [4] 4.01 µM | [5] 1.29 µM | [6] 9.08 µM | [7] 1.66 µM | [8] 5.47 µM | [9] 2.86 µM | [10] 11.6 µM | [56] 18.1 µM | [11] 2.5 µM | [12] 3.9 µM | [13] 4.85 µM | [15] 2.76 µM | [16] 12.9 µM | [18] 18.6 µM | [19] 19 µM | [20] 2.88 µM | [21] 2.07 µM | [22] 3.15 µM | [23] 2.11 µM | [24] 2.07 µM | [57] 6.61 µM | [25] 8.97 µM | [26] 15.5 µM | [27] 12.6 µM | [28] 2.28 µM | [29] 14.5 µM | [30] 2.01 µM | [32] 17.5 µM | [33] 19.1 µM | [34] 3.31 µM | [35] 7.08 µM | [36] 13.4 µM | [37] 4.62 µM | [38] 3.15 µM | [58] 13.6 µM | [41] 12.5 µM | [42] 12.3 µM | [43] 3.06 µM | [44] 15.1 µM | [45] 18.4 µM | [46] 18.7 µM | [47] 16.4 µM | [48] 2.52 µM | [49] 3.18 µM | [50] 17 µM | [52] 14.7 µM | [53] 13.8 µM | [54] 10.5 µM | [55] 11.7 µM
3.08 µM: [17]
active: [2] 0.412 µM | [31] 1.05 µM | [40] 0.836 µM

O=C(O)CNS(=O)(=O)c1ccc(NC(=O)c2ccc(F)cc2)cc1
inactive: [1] > 100 µM | [2] > 100 µM | [3] > 100 µM | [4] > 100 µM | [5] > 10 µM | [6] > 100 µM | [7] > 100 µM | [59] > 100 µM | [8] > 100 µM | [10] > 100 µM | [56] > 100 µM | [11] > 100 µM | [12] > 100 µM | [13] > 100 µM | [15] > 100 µM | [16] > 100 µM | [18] > 100 µM | [19] > 100 µM | [20] > 100 µM | [21] > 100 µM | [22] > 100 µM | [57] > 100 µM | [25] > 100 µM | [26] > 100 µM | [27] > 100 µM | [28] > 100 µM | [29] > 100 µM | [30] > 100 µM | [31] > 100 µM | [32] > 100 µM | [34] > 100 µM | [35] > 100 µM | [36] > 100 µM | [37] > 100 µM | [38] > 100 µM | [39] > 100 µM | [58] > 100 µM | [40] > 100 µM | [41] > 100 µM | [42] > 100 µM | [43] > 100 µM | [44] > 100 µM | [45] > 100 µM | [46] > 100 µM | [47] > 100 µM | [48] 83 µM | [49] > 100 µM | [50] > 100 µM | [52] > 100 µM | [53] > 100 µM | [54] > 100 µM | [55] > 100 µM
> 100 µM: [17]

COc1ccc(OC)c(N2CC(N)C2=O)c1 (stereo not given)
> 100 µM: [17]
inactive: [2] > 100 µM | [3] > 100 µM | [4] > 100 µM | [5] > 100 µM | [6] > 100 µM | [59] > 100 µM | [8] > 100 µM | [10] 86.7 µM | [56] > 100 µM | [11] > 100 µM | [12] > 100 µM | [13] > 100 µM | [14] > 100 µM | [15] > 100 µM | [16] > 100 µM | [18] > 100 µM | [19] > 100 µM | [20] > 100 µM | [21] > 100 µM | [22] > 100 µM | [23] > 100 µM | [57] > 100 µM | [25] > 100 µM | [26] > 100 µM | [27] > 100 µM | [28] > 100 µM | [30] > 100 µM | [31] > 100 µM | [32] > 100 µM | [33] > 100 µM | [34] > 100 µM | [35] > 100 µM | [36] > 100 µM | [37] > 100 µM | [38] > 100 µM | [39] > 100 µM | [58] > 100 µM | [40] > 100 µM | [42] > 100 µM | [43] > 100 µM | [44] > 100 µM | [45] > 100 µM | [46] > 100 µM | [47] > 100 µM | [48] > 100 µM | [49] > 100 µM | [50] > 100 µM | [52] > 100 µM | [53] > 100 µM | [54] > 100 µM | [55] > 100 µM
